Results taken from patent US9522930B2, “Chartreusin analogues” (Leibniz-Institut Für Naturstoff-Forschung Und …, priority 2012, dated 2016).
Converted amounts (≈) assume the structure as drawn. Where two headings read alike, the source gives them in different places.

Key:
[1] = tested on: Mycobacterium vaccae 10670; test: Antimicrobial activity (MIC), test strain Mycobacterium vaccae 10670; format: cell-based; conditions: Mycolicibacterium vaccae; Test strain: Mycobacterium vaccae 10670; read-out: Antimicrobial MIC value, Mycobacterium vaccae
Source text: Antimicrobial (MIC value [μM]), cytotoxic (CC50 [μM] for HeLa) and antiproliferative (GI50 [μM] for HUVEC, K-562, HT-29 and MEL-HO) activities of chartreusin and its derivatives. Test strain: Mycobacterium vaccae 10670.

[2] = tested on: human umbilical vein endothelial cells HUVEC (ATCC CRL-1730); test: Growth inhibition (antiproliferative effect) of HUVEC; format: cell-based; conditions: for GI50: Homo sapiens, read-out: antiproliferative GI50, HUVEC
Experimental: (§2) Compounds were assayed against human umbilical vein endothelial cells HUVEC (ATCC CRL-1730) and human chronic myeloid leukemia cells K-562 (DSM ACC 10) for their antiproliferative effects (GI50) and against human cervix carcinoma cells HeLa (DSM ACC 57) for their cytotoxic effects (CC50) as previously described (Scherlach, K., Partida-Martinez, L. P., Dahse, H. M. & Hertweck, C. Antimitotic rhizoxin derivatives from a cultured bacterial endosymbiont of the rice pathogenic fungus Rhizopus microsporus. Journal of the American Chemical Society 128, 11529-11536 (2006)).

[3] = tested on: human chronic myeloid leukemia cells K-562 (DSM ACC 10); test: Growth inhibition (antiproliferative effect) of K-562; format: cell-based; conditions: for GI50: Homo sapiens, K562, read-out: antiproliferative GI50, K-562
Experimental: as §2

[4] = tested on: human HT-29 colon adenocarcinoma cells (ACC 299); test: Growth inhibition of HT-29 in the presence or absence of light; format: cell-based
Experimental: (§1) The human HT-29 colon adenocarcinoma cells (ACC 299) and the human MEL-HO (ACC 62) melanoma cells were grown as previously described (Ueberschaar, N.; Dahse, H.-M.; Bretschneider, T.; Hertweck, C. Angew. Chem. Int. Ed. 2013, 52, 6185-6189).

[5] = tested on: human MEL-HO (ACC 62) melanoma cells; test: Growth inhibition of MEL-HO in the presence or absence of light; format: cell-based
Experimental: as §1

[6] = tested on: Hs27 foreskin fibroblast cells (ATCC, CRL-1634); test: Growth inhibition of Hs27 in the presence or absence of light; format: cell-based, human; conditions: for GI50: Homo sapiens, 72 hours
Source text: In order to verify the extraordinary in vitro photo induced activity a human foreskin fibroblast cell line (Hs27) has been chosen to evaluate the antiproliferative activity against human cells. During this assay a control group without light has been tested under standard conditions. One group was irradiated with a very homogenous LED cluster under the same conditions. […] This indicates the high potential of this new chartreusin-like structure motive as a drug for epithel cell carcinomas. Not only superficial areas like the skin in case of melanoma can be irradiated also endoscopic accessible areas like the bladder, colon, esophageal or laryngeal cancers are conceivable for a treatment.
The Hs27 foreskin fibroblast cells (ATCC, CRL-1634) were grown in RPMI 1640 (CAMBREX 12-167F) supplemented with 500 μl/l gentamicin sulfate (Cambrex 17-518Z), 10% heat inactivated fetal bovine serum (PAA A15-104), at 37° C. in plastic flasks (NUNC) in a humidified atmosphere containing 5% CO2.
The adherent cells of Hs27 were harvested at the logarithmic growth phase after soft trypsinization using 0.25% trypsin in PBS containing 0.02% EDTA (Biochrom KG L2163).
Hs27 cells were seeded with 1×10^4 cells per 0.1 mL per well of the 96-well microplates (NUNC 167008). Then, the plates were prepared with dilutions of the compounds.
The influence of the different dilutions of compounds in the absence or presence of light (distance to the cells: 4 cm) were assayed for 72 hours at 37° C. in a humidified atmosphere containing 5% CO2. After incubation time, the effect of compounds in the absence or presence of light were analyzed in compare to negative control.
For this, the adherent Hs27 cells were fixed by glutaraldehyde (MERCK 1.04239.0250) and stained with a 0.05% solution of methylene blue (SERVA 29198) for 15 min. After gentle washing, the stain was eluted by 0.2 mL of 0.33 N HCl in the wells. The optical densities were measured at 660 nm in a microplate reader (Tecan “Sunrise”, Austria). Under the experimental conditions, the signals from the methylene blue are proportional to the number of viable cells.

[7] = tested on: defined DNA fragments (1.5 kb); test: Laser-induced DNA-adduct assay, gel electrophoresis with a specified DNA fragment; conditions: 1% agarose gel; for electrophoretic band shift of DNA fragment, irradiated: blue laser 405 nm, 20 mW, 30 sec
Experimental: However, the situation changed substantially under photoinducing conditions. A GaN laser has been used for an induced DNA-adduct assay because a laser warrants high spectral purity combined with a high power density. Furthermore, the emission wavelength (405 nm) fits to the absorption maximum of chartreusin, which is a prerequisite to efficiently activating the molecule.
For the assay defined DNA fragments (1.5 kb) were treated with either chartreusin or 1-vinylchartreusin, and the effect of blue laser irradiation was compared to negative controls incubated in the dark or with daylight.
DNA-Adduct formation was carried out using a pure specified DNA fragment with the following sequence:
8 μL of water, 2 μL of DNA (25.7 ng/μL) were either directly treated with 2 μL loading buffer or were treated additionally with 0.1 μL (1 mg/mL in DMSO) substrate. The solution was irradiated with a laser (405 nm, 20 mW) for 30 sec. and then treated with loading buffer. The DNA was loaded on 1% agarose gel with ethidium bromide operating at 120 V (FIG. 2).

[8] = tested on: vancomycin-resistant Enterococcus (VRE); test: VRE assay (MIC); format: cell-based; conditions: read-out: MIC against VRE
in vitro = conditions: human
Experimental: as §2

[9] = tested on: methicillin-resistant Staphylococcus aureus (MRSA); test: Antibiotic activity against MRSA; format: cell-based
[10] = Cytotoxicity against HeLa; conditions: human, HeLa cells (human cervix carcinoma, DSM ACC 57)
Experimental: as §2

[11] = tested on: human cervix carcinoma cells HeLa (DSM ACC 57); test: Cytotoxicity against HeLa; conditions: HeLa, standard conditions
Experimental: as §2

[12] = Homo sapiens, HT-29, 8 h, HT-29, 420 nm, 3 × 8 h, read-out: antiproliferative GI50, HT-29, 420 nm, 3 × 8 h
[13] = Homo sapiens, HT-29, HT-29, w/o light, read-out: antiproliferative GI50, HT-29, w/o light
[14] = Homo sapiens, HT-29, HT-29, with light (blue LED), read-out: GI50 with light, HT-29
[15] = Homo sapiens, HT-29, HT-29, without light (absence of light), read-out: GI50 without light, HT-29
[16] = 8 h, read-out: antiproliferative GI50, Mel-HO, 420 nm, 3 × 8 h
[17] = read-out: antiproliferative GI50, Mel-HO, w/o light
[18] = Hs27, with light vs without light

Row | Compound | MIC [1] | GI50 [2] | GI50 [3] | GI50 [4, 12] | GI50 [4, 13] | GI50 [4, 14] | GI50 [4, 15] | GI50 [5, 16] | GI50 [5, 17] | electrophoretic band shift of DNA fragment, irradiated [7] | MIC [8] | also measured
1 | CO[C@H]1[C@@H](O)[C@@H](C)O[C@H](O[C@H]2[C@H](Oc3cccc4c(O)c5c(=O)oc6ccc(C)c7c(=O)oc(c34)c5c67)O[C@H](C)[C@H](O)[C@@H]2O)[C@@H]1O [Chartreusin] | 1.2 µM (≈ 0.769 µg/mL) | 6.24 µM | 1.56 µM | 7.65 µM | 7.96 µM | 7.65 µM | 7 to 9.4 µM | 2.34 µM | 1.56 µM | electrophoretic properties of the DNA fragment could be fully reserved | 9.59 to 9.76 µM (≈ 6.14 to 6.25 µg/mL) | effect of light on antiproliferative activity, Hs27 [6, 18]: not affected by treatment with light; CC50 (in vitro): 12.6 µM
2 | C=Cc1ccc2oc(=O)c3c(O)c4cccc(O[C@@H]5OC(C)[C@H](O)[C@H](O)C5O[C@H]5OC(C)[C@H](O)C(OC)[C@H]5O)c4c4oc(=O)c1c2c34 (stereo partly shown) [Vinylchartreusin, 1-Vinylchartreusin] | 4.8 µM (≈ 3.13 µg/mL) | 32.8 µM | 3.06 µM | 0.61 µM | 7.05 µM | 0.6 µM | 7 to 9.4 µM | 0.08 µM | 0.11 µM | clear band shift to a higher molecular mass | 9.59 to 9.76 µM (≈ 6.26 to 6.37 µg/mL) | less active than chartreusin, HUVEC ([2]; standard conditions (no photoinduction)): about 4 fold; activity relative to chartreusin and homochartreusin, K562 ([3]; K562, standard conditions): only slightly lower than chartreusin and homochartreusin; GI50 ([4]; HT-29, without light (absence of light), read-out: GI50 without light, HT-29): 7.1 µM; GI50 ([6]; light or radiation study, Hs27, irradiated with LED cluster, read-out: GI50 value with light, Hs27): 0.5 µg/mL (≈ 0.766 µM); GI50 ([6]; Hs27, without light, read-out: GI50 value without light, Hs27): 6.8 µg/mL (≈ 10.4 µM); GI50 with light lower than without light, Hs27 [6, 18]: more than 10 fold; electrophoretic band shift of DNA fragment, not irradiated ([7]; not irradiated (dark or daylight)): no shift; antibiotic activity against MRSA relative to chartreusin and ciprofloxacin [9]: as active as the natural product and are even more potent than the reference antibiotic ciprofloxacin; CC50 [10]: 24.7 µM; activity relative to chartreusin and homochartreusin, HeLa [11]: only slightly lower than chartreusin and homochartreusin
